Laboratory results: PubChem BioAssay AID248 (DTP/NCI, 2004)
Where “and” joins values, the source holds several entries; their conditions need not be identical. Equal entries are not always repeated. Inconclusive results and toxic doses are left out. Cut-off read from the data, not from the text of the source: active = T/C of 150% or more; inactive = T/C below 125%.

System: L1210 leukemia ip in BDF1 mice, survival T/C
Assay: NCI In Vivo Anticancer Drug Screen. Data for tumor model L1210 Leukemia (intraperitoneal) in B6D2F1 (BDF1) mice
Settings: endpoint: mean survival time, higher = longer survival
Outline: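 Tumor was transplanted into mice, which were then dosed with test compound or vehicle alone. Survival was recorded for each group, and the treated figure was expressed relative to the control figure.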

[1] = dose: 100.0 mg/kg/injection, schedule: Q04DX002 (ip), vehicle: saline with Tween-80
[2] = dose: 200.0 mg/kg/injection, schedule: Q04DX002 (ip), vehicle: saline with Tween-80
[3] = dose: 100.0 mg/kg/injection, schedule: Q01DX001 (ip), vehicle: saline
[4] = dose: 200.0 mg/kg/injection, schedule: Q01DX001 (ip), vehicle: saline
[5] = dose: 400.0 mg/kg/injection, schedule: Q01DX001 (ip), vehicle: saline

Measured: T/C

CSc1ccc(NC(=O)Nc2ccc(C(=O)NCC(=O)O)cc2)cc1
inactive: dose: 25.0 mg/kg/injection, schedule: Q01DX009 (ip), vehicle: saline with Tween-80 102 % of control and 92 % of control | dose: 25.0 mg/kg/injection, schedule: Q04DX003 (ip), vehicle: saline with Tween-80 96 % of control | dose: 50.0 mg/kg/injection, schedule: Q04DX003 (ip), vehicle: saline with Tween-80 105 % of control | dose: 100.0 mg/kg/injection, schedule: Q01DX001 (ip), vehicle: saline with Tween-80 97 % of control | [1] 96 % of control and 91 % of control | dose: 100.0 mg/kg/injection, schedule: Q04DX003 (ip), vehicle: saline with Tween-80 110 % of control | [2] 94 % of control and 99 % of control

Cc1c2ccc3ccccc3c2c(C)[n+]2ccccc12
inactive: dose: 2.0 mg/kg/injection, schedule: Q01DX Z (ip), vehicle: carboxymethylcellulose (CMC) 122 % of control | dose: 4.0 mg/kg/injection, schedule: Q01DX Z (ip), vehicle: carboxymethylcellulose (CMC) 106 % of control | dose: 8.0 mg/kg/injection, schedule: Q01DX Z (ip), vehicle: carboxymethylcellulose (CMC) 93 % of control

NS(=O)(=O)c1ccc(N=Nc2ccc([As](=O)(O)O)cc2)cc1
inactive: [3] 98 % of control | [4] 98 % of control | [5] 98 % of control

COC(=O)NC1CCC(NC(=O)OC)CC1 (stereo unspecified)
inactive: dose: 100.0 mg/kg/injection, schedule: Q01DX001 (ip), vehicle: Klucel (hydroxypropylcellulose) (HPC) 96 % of control | dose: 200.0 mg/kg/injection, schedule: Q01DX001 (ip), vehicle: Klucel (hydroxypropylcellulose) (HPC) 93 % of control | dose: 400.0 mg/kg/injection, schedule: Q01DX001 (ip), vehicle: Klucel (hydroxypropylcellulose) (HPC) 91 % of control

COc1ccc(C2c3cc(OC)c(OC)c(S(N)(=O)=O)c3CC3C(=O)OCC32)cc1OC (stereo unspecified)
inactive: [3] 98 % of control | [4] 96 % of control | [5] 98 % of control

CCCCCCCC(=O)N1C(=O)CCC1C(=O)NCCCCC(=O)OC (stereo unspecified)
inactive: [1] 103 % of control | [2] 116 % of control | dose: 400.0 mg/kg/injection, schedule: Q04DX002 (ip), vehicle: saline with Tween-80 90 % of control

O=c1cc(/C=N\Nc2ccc([N+](=O)[O-])cc2)[nH]c(=O)[nH]1
inactive: dose: 50.0 mg/kg/injection, schedule: Q01DX001 (ip), vehicle: saline 106 % of control | [3] 95 % of control | [4] 101 % of control | [5] 90 % of control
